Values after ≈ are worked out from the molar mass of the structure shown. Where two headings read alike, the source gives them in different places.
Experiments:
Experiment in all cases: In-vitro antimicrobial activity primary screen (agar dilution MIC)
Format in all cases: cell-based
[1] = test system: Acinetobacter SP CMX 669
Protocol: (§1) The antimicrobial spectra of several of the compounds of the present invention were tested as described below.
(§2) Twelve petri dishes containing successive aqueous dilutions of the test compounds, mixed with 10 mL of sterilized Brain Heart Infusion (BHI) agar (Difco 0418-01-5), were prepared. Each plate was inoculated with 1:100 (or 1:10 for slow growing strains (primarily Micrococcus and Streptococcus) dilutions of up to 32 different microorganisms, using a Steers replicator block. The inoculated plates were incubated at 35 37° C. for 20-24 hours. In addition, a control plate, using BHI agar containing no test compound, was prepared and incubated at the beginning and the end of each test.
(§3) An additional plate containing a compound having known susceptibility patterns for the organisms being tested and belonging to the same antibiotic class as the test compounds was also prepared and incubated as a further control, as well as to provide test-to test comparability.
(§4) After incubation, each plate was read. The MIC (minimum inhibitory concentration) is defined as the lowest concentration of test compound yielding no growth, a slight haze, or sparsely isolated colonies on the inoculum spot as compared to the growth control containing no test compound.

[2] = test system: Enterobacter aerogenes ATCC 13048
Protocol: as §1, §2, §3, §4

[3] = test system: Enterococcus faecium ATCC 8043
Protocol: as §1, §2, §3, §4

[4] = test system: Escherichia coli DC-2; conditions: Escherichia coli DC-2, BHI agar, 20-24 h
Protocol: as §1, §2, §3, §4

[5] = test system: Escherichia coli H560
Protocol: as §1, §2, §3, §4

[6] = test system: Escherichia coli JUHL; conditions: Escherichia coli JUHL, BHI agar, 20-24 h
Protocol: as §1, §2, §3, §4

[7] = test system: Escherichia coli SS; conditions: BHI agar, 20-24 h
Protocol: as §1, §2, §3, §4

[8] = test system: Klebsiella pneumoniae ATCC 8045
Protocol: as §1, §2, §3, §4

[9] = test system: Micrococcus luteus ATCC 4698; conditions: BHI agar, 20-24 h
Protocol: as §1, §2, §3, §4

[10] = test system: Micrococcus luteus ATCC 9341; conditions: 20-24 h
Protocol: as §1, §2, §3, §4

[11] = test system: Providencia stuartii CMX 640
Protocol: as §1, §2, §3, §4

[12] = test system: Pseudomonas aeruginosa A5007
Protocol: as §1, §2, §3, §4

[13] = test system: Pseudomonas aeruginosa BMH10; conditions: BHI agar, 20-24 h
Protocol: as §1, §2, §3, §4

[14] = test system: Pseudomonas aeruginosa K799/61
Protocol: as §1, §2, §3, §4

[15] = test system: Pseudomonas aeruginosa K799/WT
Protocol: as §1, §2, §3, §4

[16] = test system: Pseudomonas cepacia 2961; conditions: BHI agar, 20-24 h
Protocol: as §1, §2, §3, §4

[17] = test system: Staphylococcus aureus 45 RAR2; conditions: BHI agar, 20-24 h
Protocol: as §1, §2, §3, §4

[18] = test system: Staphylococcus aureus 45; conditions: BHI agar, 20-24 h
Protocol: as §1, §2, §3, §4

[19] = test system: Staphylococcus aureus A5177; conditions: Staphylococcus aureus A5177, BHI agar, 20-24 h
Protocol: as §1, §2, §3, §4

[20] = test system: Staphylococcus aureus ATCC 6538P; conditions: BHI agar, 20-24 h
Protocol: as §1, §2, §3, §4

[21] = test system: Staphylococcus epidermidis 3519; conditions: BHI agar, 20-24 h
Protocol: as §1, §2, §3, §4

[22] = test system: Streptococcus agalactiae CMX 508; conditions: BHI agar, 20-24 h
Protocol: as §1, §2, §3, §4

[23] = test system: Streptococcus bovis A5169; conditions: BHI agar, 20-24 h
Protocol: as §1, §2, §3, §4

[24] = test system: Streptococcus pyrogenes 2548 INDUC; conditions: BHI agar, 20-24 h
Protocol: as §1, §2, §3, §4

[25] = test system: Streptococcus pyrogenes EES61; conditions: BHI agar, 20-24 h
Protocol: as §1, §2, §3, §4

[26] = test system: Staphylococcus aureus CMX 503A; conditions: BHI agar, 20-24 h
Protocol: as §1, §2
(§5) An additional plate containing a compound having known susceptibility patterns for the organisms being tested and belonging to the same antibiotic class as the test compounds was also prepared and incubated as a further control, as well as to provide test-to test comparability. Erythromycin A was used for this purpose.
as §4

[27] = test system: Staphylococcus aureus CMX 553; conditions: BHI agar, 20-24 h
Protocol: as §1, §2, §5, §4

[28] = test system: Staphylococcus aureus CMX 686B; conditions: BHI agar, 20-24 h
Protocol: as §1, §2, §5, §4

[29] = Enterococcus faecium, ATCC8043, 24 h
[30] = Micrococcus luteus, ATCC4698, 24 h
[31] = Pseudomonas aeruginosa, A5007, 24 h
[32] = Pseudomonas aeruginosa, BMH10, 24 h
[33] = Pseudomonas aeruginosa, K799/WT, 24 h
[34] = Staphylococcus aureus, 45RAR2, 24 h
[35] = Staphylococcus aureus, A5177, 24 h
[36] = Staphylococcus aureus, ATCC6538P, 24 h
[37] = Streptococcus agalactiae, CMX508, 24 h
[38] = Staphylococcus aureus, CMX503A, 24 h, read-out: MIC
[39] = Staphylococcus aureus, CMX553, 24 h, read-out: MIC

## CC[C@H]1OC(=O)[C@H](C)[C@@H](O[C@H]2C[C@@](C)(OC)[C@H](N)[C@H](C)O2)[C@H](C)[C@@H](O[C@@H]2O[C@H](C)C[C@H](N(C)C)[C@H]2O)[C@](C)(O)C[C@@H](C)[C@@H]2O[C@@]1(C)C(=O)[C@H]2C [Example 8, (4"R,9S)-4"-Amino-9-deoxo-4",11,12-trideoxy-9,12-epoxy 11-oxoerythromycin A]
[1]; Acinetobacter, SPCMX669, 24 h
  MIC: 6.2 µg/mL (≈ 8.67 µM)
[2]; Klebsiella aerogenes, ATCC13048, Enterobacter aerogenes ATCC 13048, BHI agar, 20-24 h, read-out: MIC
  MIC: > 100 µg/mL
[3]; [29]
  MIC: 0.05 µg/mL (≈ 0.0699 µM)
[4]; DC2, read-out: MIC
  MIC: 100 µg/mL (≈ 140 µM)
[5]; Escherichia coli, H560, 24 h
  MIC: 25 µg/mL (≈ 35 µM)
[6]; read-out: MIC
  MIC: 100 µg/mL (≈ 140 µM)
[7]; Escherichia coli, 24 h
  MIC: 0.2 µg/mL (≈ 0.28 µM)
[8]; ATCC8045, Klebsiella pneumoniae ATCC 8045, BHI agar, 20-24 h, read-out: MIC
  MIC: 100 µg/mL (≈ 140 µM)
[9]; [30]
  MIC: 0.05 µg/mL (≈ 0.0699 µM)
[10]; Micrococcus luteus, ATCC9341, 24 h, BHI agar
  MIC: 0.02 µg/mL (≈ 0.028 µM)
[11]; CMX640, Providencia stuartii CMX 640, BHI agar, 20-24 h, read-out: MIC
  MIC: > 100 µg/mL
[12]; [31]
  MIC: > 100 µg/mL
[13]; [32]
  MIC: 100 µg/mL (≈ 140 µM)
[14]; Pseudomonas aeruginosa, K799/61, 24 h
  MIC: 0.78 µg/mL (≈ 1.09 µM)
[15]; [33]
  MIC: > 100 µg/mL
[16]; Burkholderia cepacia, read-out: MIC
  MIC: > 100 µg/mL
[17]; [34]
  MIC: 0.2 µg/mL (≈ 0.28 µM)
[18]; read-out: MIC
  MIC: 0.2 µg/mL (≈ 0.28 µM)
[19]; [35]
  MIC: 0.39 µg/mL (≈ 0.546 µM)
[20]; [36]
  MIC: 0.2 µg/mL (≈ 0.28 µM)
[21]; read-out: MIC
  MIC: 0.2 µg/mL (≈ 0.28 µM)
[22]; [37]
  MIC: 0.02 µg/mL (≈ 0.028 µM)
[23]; Streptococcus equinus, A5169, 24 h
  MIC: 0.05 µg/mL (≈ 0.0699 µM)
[24]; Streptococcus, 2548INDUC, 24 h
  MIC: 0.39 µg/mL (≈ 0.546 µM)
[25]; read-out: MIC
  MIC: 0.01 µg/mL (≈ 0.014 µM)
[26]; [38]
  MIC: 0.2 µg/mL (≈ 0.28 µM)
[27]; [39]
  MIC: 0.1 µg/mL (≈ 0.14 µM)
[28]; CMX686B, read-out: MIC
  MIC: 0.2 µg/mL (≈ 0.28 µM)

## CC[C@H]1OC(=O)[C@H](C)[C@@H](O[C@H]2C[C@@](C)(OC)[C@@H](N)[C@H](C)O2)[C@H](C)[C@@H](O[C@@H]2O[C@H](C)C[C@H](N(C)C)[C@H]2O)[C@](C)(O)C[C@@H](C)[C@@H]2O[C@@]1(C)C(=O)[C@H]2C [Example 14, (4"S,9S)-4"-Amino-9-deoxo-4",11,12-trideoxy-9,12-epoxy-11-oxoerythromycin A]
[1]; Acinetobacter, SPCMX669, 24 h, Acinetobacter SP CMX 669, BHI agar, 20-24 h
  MIC: 12.5 µg/mL (≈ 17.5 µM)
[2]; Klebsiella aerogenes, ATCC13048, 24 h
  MIC: > 100 µg/mL
[3]; [29]
  MIC: 0.1 µg/mL (≈ 0.14 µM)
[4]; Escherichia coli, DC2, 24 h
  MIC: 25 µg/mL (≈ 35 µM)
[5]; Escherichia coli, H560, 24 h, Escherichia coli H560, BHI agar, 20-24 h
  MIC: 12.5 µg/mL (≈ 17.5 µM)
[6]; Escherichia coli, 24 h
  MIC: 25 µg/mL (≈ 35 µM)
[7]; Escherichia coli, 24 h
  MIC: 0.2 µg/mL (≈ 0.28 µM)
[8]; Klebsiella pneumoniae, ATCC8045, 24 h
  MIC: 100 µg/mL (≈ 140 µM)
[9]; [30]
  MIC: 0.1 µg/mL (≈ 0.14 µM)
[10]; ATCC9341, BHI agar, read-out: MIC
  MIC: 0.05 µg/mL (≈ 0.0699 µM)
[11]; Providencia stuartii, CMX640, 24 h
  MIC: > 100 µg/mL
[12]; [31]
  MIC: > 100 µg/mL
[13]; [32]
  MIC: 50 µg/mL (≈ 69.9 µM)
[14]; Pseudomonas aeruginosa, K799/61, 24 h, Pseudomonas aeruginosa K799/61, BHI agar, 20-24 h
  MIC: 1.56 µg/mL (≈ 2.18 µM)
[15]; [33]
  MIC: > 100 µg/mL
[16]; Burkholderia cepacia, 2961, 24 h
  MIC: > 100 µg/mL
[17]; [34]
  MIC: 0.39 µg/mL (≈ 0.546 µM)
[18]; read-out: MIC
  MIC: 0.39 µg/mL (≈ 0.546 µM)
[19]; [35]
  MIC: 3.1 µg/mL (≈ 4.34 µM)
[20]; [36]
  MIC: 0.39 µg/mL (≈ 0.546 µM)
[21]; Staphylococcus epidermidis, 3519, 24 h
  MIC: 0.39 µg/mL (≈ 0.546 µM)
[22]; [37]
  MIC: 0.05 µg/mL (≈ 0.0699 µM)
[23]; Streptococcus equinus, read-out: MIC
  MIC: 0.1 µg/mL (≈ 0.14 µM)
[24]; Streptococcus, 2548INDUC, 24 h
  MIC: 3.1 µg/mL (≈ 4.34 µM)
[25]; Streptococcus, EES61, 24 h
  MIC: 0.05 µg/mL (≈ 0.0699 µM)
[26]; [38]
  MIC: 0.39 µg/mL (≈ 0.546 µM)
[27]; [39]
  MIC: 0.2 µg/mL (≈ 0.28 µM)
[28]; CMX686B, read-out: MIC
  MIC: 0.39 µg/mL (≈ 0.546 µM)

## CC[C@H]1OC(=O)[C@H](C)[C@@H](O[C@H]2C[C@@](C)(OC)[C@@H](O)[C@H](C)O2)[C@H](C)[C@@H](O[C@@H]2O[C@H](C)C[C@H](N(C)C)[C@H]2O)[C@](C)(O)C[C@@H](C)[C@@H]2O[C@@]1(C)C(=NO)[C@H]2C [Example 18, (9S)-9-Deoxo-11,12-dideoxy-9,12-epoxy-11-hydroxyiminoerythromycin A]
[1]; Acinetobacter SP CMX 669, BHI agar, 20-24 h
  MIC: > 100 microgram/mL
[2]; Enterobacter aerogenes ATCC 13048, BHI agar, 20-24 h
  MIC: > 100 microgram/mL
[3]; Enterococcus faecium ATCC 8043, BHI agar, 20-24 h
  MIC: 0.2 microgram/mL
[4]
  MIC: > 100 microgram/mL
[5]; Escherichia coli H560, BHI agar, 20-24 h
  MIC: > 100 microgram/mL
[6]
  MIC: > 100 microgram/mL
[7]
  MIC: 1.56 microgram/mL
[8]; Klebsiella pneumoniae ATCC 8045, BHI agar, 20-24 h
  MIC: > 100 microgram/mL
[9]
  MIC: 0.1 microgram/mL
[10]; BHI agar
  MIC: 0.1 microgram/mL
[11]; Providencia stuartii CMX 640, BHI agar, 20-24 h
  MIC: > 100 microgram/mL
[12]; Pseudomonas aeruginosa A5007, BHI agar, 20-24 h
  MIC: > 100 microgram/mL
[13]
  MIC: > 100 microgram/mL
[14]; Pseudomonas aeruginosa K799/61, BHI agar, 20-24 h
  MIC: 6.2 microgram/mL
[15]; Pseudomonas aeruginosa K799/WT, BHI agar, 20-24 h
  MIC: > 100 microgram/mL
[16]
  MIC: > 100 microgram/mL
[17]
  MIC: 0.39 microgram/mL
[18]
  MIC: 0.2 microgram/mL
[19]
  MIC: 0.78 microgram/mL
[20]
  MIC: 0.2 microgram/mL
[21]
  MIC: 0.39 microgram/mL
[22]
  MIC: 0.05 microgram/mL
[23]
  MIC: 0.1 microgram/mL
[24]
  MIC: 1.56 microgram/mL
[25]
  MIC: 0.02 microgram/mL
[26]
  MIC: 0.2 microgram/mL
[27]
  MIC: 0.2 microgram/mL
[28]
  MIC: 0.2 microgram/mL
